Consider 9 molecules from patent publication US4916214A, “Cationic complexes of technetium-99m” (Amersham International plc., priority 1987, dated 1990).

Where two headings read alike, the source gives them in different places.

The conditions of series [1]: rat, in vivo.
Experimental: In vivo biodistribution: 0.1 ml Tc^99m prep was injected i.v. into a laterial tail vein of 6 anaesthetised rats.
At 2 minutes and 60 minutes post-injection, 3 rats were sacrificed by decapitation, bled from the neck and dissected. The following organs were removed at dissection: kidney; bladder(+ urine), lung, liver, spleen, stomach, small intestine, large intestine, brain (weighed), heart (weighed), thyroid and samples of blood (weighed) and muscle (weighed), the residual carcass and the tail (injection site). Subsequently samples were counted in an automatic twin crystal gamma counter.
(§1) Percentage biodistribution of injected material was calculated (after correction for background) for all organs using the formula: [formula]
(§2) Since only samples of muscle and blood were taken, the percentage in these tissues was calculated assuming blood and muscle to represent 5.8 and 43% of total animal weight respectively using the formula: [formula]
The nature of series [2]: Animal biodistribution of 99mTc complexes in guinea pigs.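 Note: Heart, liver and kidney plus urine values are percent of the injected material, background-corrected.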 The class given is in vivo, guinea pig.
Experimental: as §1, §2
Since only samples of muscle and blood were taken, the percentage in these tissues was calculated assuming blood and muscle to represent 5.8 and 43% of total animal weight respectively using the formula: [formula] where CF= 0.058 for blood
[3] abbreviates: Table VIII, [TcL3 ]^+ complex of the ligand, guinea pigs, 2 min p.i.
Where [4] appears, read: Table VIII, [TcL3 ]^+ complex of the ligand, guinea pigs, 60 min p.i.
Setting [5] is: from Table VIII, [TcL3 ]^+, guinea pigs, 60'.
[6] abbreviates: guinea pig, 60 min p.i. in vivo, mean.

Take `COCP(C)CCP(C)COC` (centres unmarked) [Example 1, MeP(CH2 OMe)-(CH2)2 -(Me)P(CH2 OMe)]: in series [1], the “heart uptake and retention compared with dmpe complex” value was “significantly higher heart uptake and retention at 2' and 60'”; the “heart/liver ratio compared with dmpe complex” value was “significantly increased heart/liver ratio at 60'”; the “liver retention compared with dmpe complex” value is “reduced liver retention at 60'”. In series [1] (2 min), the Heart is 1.71 % injected dose, the “Heart/Blood Counts/Gram ratio” value was determined as 4.19, the “Heart/Liver Counts/Gram ratio” value is 1.81 and the “Heart/Muscle Counts/Gram ratio” value is on record as 6.61. The molecule also came in with a Liver in series [1] (2 min) of 12.6 % injected dose. Also, in series [1] (60 min), the Heart was found to be 1.42 % injected dose, the “Heart/Blood Counts/Gram ratio” value came to 25.7, the “Heart/Liver Counts/Gram ratio” value was 10.8 and the “Heart/Muscle Counts/Gram ratio” value was 5.46. Further, in series [1] (60 min), the Liver came to 1.53 % injected dose. Further, in series [2] (setting [3]), the Heart is reported as 0.98 % injected dose, the “Heart/Blood Counts/Gram ratio” value was found to be 1.63, the “Heart/Liver Counts/Gram ratio” value was determined as 0.82 and the “Heart/Muscle Counts/Gram ratio” value is given as 8.18. This molecule came in with a Liver in series [2] (setting [3]) of 24.0 % injected dose. For the same molecule, in series [2] (setting [4]), the Heart is given as 0.83 % injected dose, the “Heart/Blood Counts/Gram ratio” value is reported as 10.5, the “Heart/Liver Counts/Gram ratio” value turned out to be 0.72 and the “Heart/Muscle Counts/Gram ratio” value is 4.29. The same molecule had a Liver in series [2] (setting [4]) of 13.3 % injected dose. For the same molecule, the “heart uptake and retention compared with dmpe complex” value in series [2] (from Table VIII, [TcL3 ]^+, guinea pigs, 2' and 60') is “increased heart uptake and retention at 2' and 60'”. Moreover, in series [2] (setting [5]), the “heart/blood ratio compared with dmpe complex” value is listed as “better”, the “heart/liver ratio compared with dmpe complex” value is recorded as “better”, the “heart/muscle ratio compared with dmpe complex” value was “better” and the “liver retention compared with dmpe complex” value is “much lower liver retention at 60'”.
On to `COCP(C)CCP(C)C` (centres unmarked) [Example 2, Me2 P-(CH2)2 -P(Me) (CH2 OMe)], for which, in series [1], the “general trend of biodistribution compared with dmpe complexes” value is “show the same general trend”. Further, in series [1] (2 min), the Heart stood at 0.96 % injected dose, the “Heart/Blood Counts/Gram ratio” value is reported as 9.05, the “Heart/Liver Counts/Gram ratio” value is 0.57 and the “Heart/Muscle Counts/Gram ratio” value is recorded as 4.99. Further, the Liver in series [1] (2 min) came to 20.45 % injected dose. For the same molecule, in series [1] (60 min), the Heart is recorded as 0.94 % injected dose, the “Heart/Blood Counts/Gram ratio” value worked out at 49.63, the “Heart/Liver Counts/Gram ratio” value came to 7.26 and the “Heart/Muscle Counts/Gram ratio” value came to 4.17. The Liver in series [1] (60 min) was 1.62 % injected dose. In series [2] (setting [3]), the Heart was 0.96 % injected dose, the “Heart/Blood Counts/Gram ratio” value is listed as 1.59, the “Heart/Liver Counts/Gram ratio” value is given as 0.51 and the “Heart/Muscle Counts/Gram ratio” value was 9.19. The Liver in series [2] (setting [3]) stood at 24.85 % injected dose. In series [2] (setting [4]), the Heart came to 0.43 % injected dose, the “Heart/Blood Counts/Gram ratio” value amounted to 7.82, the “Heart/Liver Counts/Gram ratio” value amounted to 0.30 and the “Heart/Muscle Counts/Gram ratio” value was 4.60. Further, the Liver in series [2] (setting [4]) turned out to be 26.13 % injected dose.
`COC(CC(OC)P(C)C)P(C)C.COC(CC(OC)P(C)C)P(C)C.COC(CC(OC)P(C)C)P(C)C.[99Tc+]` (centres unmarked) [Example 16]: in series [1] (2 min), the Blood is given as 7.15 % injected dose/organ, the Heart was found to be 1.30 % injected dose/organ, the “Heart/Blood Counts/Gram ratio” value is on record as 2.78 and the “Heart/Liver Counts/Gram ratio” value is given as 1.14. Moreover, in series [1] (2 min), the “Heart/Lung Counts/Gram ratio” value was 0.5, the “Heart/Muscle Counts/Gram ratio” value was 5.01, the “Kidney + Urine” value stood at 9.33 % injected dose/organ and the Liver is given as 17.4 % injected dose/organ. In series [1] (2 min), the “Liver + GI” value is on record as 31.5 % injected dose/organ, the Lung worked out at 3.57 % injected dose/organ and the Muscle stood at 29.1 % injected dose/organ. In addition, in series [1] (60 min), the Blood is on record as 0.64 % injected dose/organ, the Heart is 0.99 % injected dose/organ, the “Heart/Blood Counts/Gram ratio” value came to 22.1 and the “Heart/Liver Counts/Gram ratio” value was found to be 1.64. In series [1] (60 min), the “Heart/Lung Counts/Gram ratio” value is 0.7, the “Heart/Muscle Counts/Gram ratio” value was 6.4, the “Kidney + Urine” value came out at 25.7 % injected dose/organ and the Liver is 8.81 % injected dose/organ. In series [1] (60 min), the “Liver + GI” value worked out at 43.3 % injected dose/organ, the Lung worked out at 1.79 % injected dose/organ and the Muscle turned out to be 17.1 % injected dose/organ. Besides, in series [2] (setting [6]), the Blood is on record as 2.03 % injected dose/organ, the Heart is on record as 0.57 % injected dose/organ, the “Heart/Blood Counts/Gram ratio” value was found to be 7.08 and the “Heart/Liver Counts/Gram ratio” value is 0.94. In addition, in series [2] (setting [6]), the “Heart/Lung Counts/Gram ratio” value came out at 0.4, the “Heart/Muscle Counts/Gram ratio” value worked out at 3.98, the “Kidney + Urine” value came out at 23.3 % injected dose/organ and the Liver turned out to be 10.0 % injected dose/organ. For the same molecule, in series [2] (setting [6]), the “Liver + GI” value was determined as 48.6 % injected dose/organ, the Lung is on record as 1.01 % injected dose/organ and the Muscle is reported as 20.7 % injected dose/organ.
As to `COC(CC(OC)P(C)C)P(C)C.COC(CC(OC)P(C)C)P(C)C.O=[N][99Tc+][Cl].[Cl-]` (centres unmarked) [Example 17], in series [1] (60 min), the Blood was 0.44 % injected dose/organ, the Heart is 1.23 % injected dose/organ, the “Heart/Blood Counts/Gram ratio” value stood at 39.1 and the “Heart/Liver Counts/Gram ratio” value worked out at 2.47. For the same molecule, in series [1] (60 min), the “Heart/Lung Counts/Gram ratio” value is on record as 2.7, the “Heart/Muscle Counts/Gram ratio” value is on record as 5.51, the “Kidney + Urine” value was found to be 15.8 % injected dose/organ and the Liver was 6.03 % injected dose/organ. Further, in series [1] (60 min), the “Liver + GI” value amounted to 47.9 % injected dose/organ, the Lung is recorded as 0.72 % injected dose/organ and the Muscle worked out at 22.9 % injected dose/organ. For the same molecule, in series [2] (setting [6]), the Blood is given as 1.31 % injected dose/organ, the Heart was found to be 0.70 % injected dose/organ, the “Heart/Blood Counts/Gram ratio” value was determined as 13.9 and the “Heart/Liver Counts/Gram ratio” value is recorded as 4.21. In series [2] (setting [6]), the “Heart/Lung Counts/Gram ratio” value is recorded as 1.3, the “Heart/Muscle Counts/Gram ratio” value came out at 6.81, the “Kidney + Urine” value turned out to be 17.6 % injected dose/organ and the Liver came to 2.76 % injected dose/organ. In addition, in series [2] (setting [6]), the “Liver + GI” value is reported as 57.1 % injected dose/organ, the Lung was determined as 0.55 % injected dose/organ and the Muscle worked out at 1.60 % injected dose/organ.
In series [1] (2 min), `COC(CC(OC)P(C)C)P(C)C` (centres unmarked) [PL30] had an HEART/BLOOD of 2.78, an HEART/LIVER of 5.01 and a Heart of 1.30.
For `CP(C)CC1(CP(C)C)COC(C)(C)OC1` [PL35], in series [1] (2 min), the HEART/BLOOD is recorded as 4.07, the HEART/LIVER is reported as 0.46 and the Heart is recorded as 0.88. Further, in series [1] (60 min), the HEART/BLOOD was 35.3, the HEART/LIVER is 1.65 and the Heart is given as 0.55.
`CCOCCOCCOC(CP(C)C)CP(C)C` [PL41]: in series [1] (2 min), the HEART/BLOOD is 7.83, the HEART/LIVER worked out at 0.83 and the Heart is given as 1.08. In series [1] (60 min), this molecule showed an HEART/BLOOD of 122, an HEART/LIVER of 4.65 and a Heart of 1.02.
In series [1] (2 min), `COCCOCC(COC)(CP(C)C)CP(C)C` [PL46] returned an HEART/BLOOD of 14.0, an HEART/LIVER of 1.82 and a Heart of 1.87. In series [1] (60 min), the HEART/BLOOD stood at 345, the HEART/LIVER came out at 17.1 and the Heart was determined as 1.77.
As for `CP(C)CC1(CP(C)C)CCOCC1` [PL49], in series [1] (2 min), the HEART/BLOOD is given as 1.13, the HEART/LIVER is 0.11 and the Heart was 0.32. Moreover, in series [1] (60 min), the HEART/BLOOD came out at 131, the HEART/LIVER was 0.24 and the Heart turned out to be 0.18.
